Results as given in patent publication US12569470B2, “Vasodilator and use thereof” (Bioradical Research Institute Corp., priority 2019, dated 2026).

Legend:
rat neuroid cells B50 [1] = assay: Toxicity evaluation on byproducts after reaction with singlet oxygen; assay type: cell-based; details: byproducts after reaction with singlet oxygen, 50, 100, or 200 μmol/1, FIG. 6
Description: In a cell-free system, the RB was added to media (5% FCS-containing RPMI-1640 media) containing edaravone, ED2AP, and BisEp-C3 having a predetermined concentration (50, 100, or 200 μmol/1) and then irradiated with LED (G-LED) at 525 nm to generate singlet oxygen, whereby reacting each compound with singlet oxygen. The cell viability was measured in the same manner as in Example 7(1), except that the culture solution after the reaction was used as a medium of the neuroid cell B50. As a negative control (NC), the cell viability was measured in the same manner except that each compound and […] were not added in the cell-free system. Further, as a control (RB), the cell viability was measured in the same manner except that each compound was not added and only […] was added in the cell-free system.

[2] = system: superoxide produced by the neutrophils; assay: Superoxide-eliminating ability of PBS solutions before and after storage for 10 days; assay type: cell-based, human; details: PBS solution stored for 10 days versus immediately after preparation, 0-200 μmol/1, FIG. 4
Description: (§1) First, ED2AP, BisEp-C3, edaravone, BisEp-C1, or BisEp-C1 (H2) was added to a neutrophil of 4×10^5 cells per sample so as to achieve a predetermined concentration (0, 12.5, 25, 50, 100, or 200 μmol/1, or 0, 125, 250, 500, 1,250, 2,500 or 5,000 μmol/1) with […] of CLA, and then the cell suspension was seeded in flat-bottomed 96-well plates. The volume of the suspension was 200 μl/well, and phenol red-free Ca+, Mg+ HBSS was used as the solution. In addition, the neutrophil was stimulated by adding PMA so as to achieve a concentration of 100 ng/ml. After the stimulation, a plate reader (Envision 2104 Multilabel Reader produced by Perkin Elmer Co., Ltd.) was used to measure the chemiluminescence value over time for 30 minutes with the PMA stimulation time being a reference. The measurement interval was 30 seconds. […] In addition, as a control, the superoxide production amount was measured in the same manner except that each compound was not added. The relative value of the superoxide production amount when each compound was added was calculated with the superoxide production amount of the control being 100.
PBS solutions of ED2AP, BisEp-C3, and edaravone were prepared in the same manner as in Example 2 and stored for 10 days. […] Then, the relative value of the superoxide production amount of each sample was calculated with the superoxide production amount of the sample of 0 μmol/1 being 100.

rat neuroid cells B50 [3] = assay: Toxicity evaluation, cell viability by Alamar Blue; assay type: cell-based; details: 12.5, 25, 50, 100, or 200 μmol/1, 24 hours, FIG. 5
Description: Rat neuroid cells B50 were seeded in 12-well plates and then cultured. Edaravone (RC), ED2AP, or BisEp-C3 was added to each well so as to achieve a predetermined concentration (12.5, 25, 50, 100, or 200 μmol/1), and then incubated for 24 hours at 37° C. and 5% CO2. Cell viability in each well after the culture was measured using Alamar Blue.

[4] = Storage stability in pH7.4-PBS or pure water at 37° C., residual rate by HPLC; assay type: physicochemical; details: for Residual rate (%) After 1 week / Residual rate (%) After 2 weeks: 200 μmol/1, 37° C., protected from light; for Residual rate (%) Initial concentration: 200 μmol/1, initial concentration (100%) being a reference
Description: The storage stability of edaravone, EMPO, ED2AP, and BisEp-C3 of the following formula (A) were examined. Specifically, edaravone, EMPO, ED2AP, and BisEp-C3 were dissolved in pH7.4-PBS or pure water so as to have a final concentration of 200 μmol/1 to prepare dissolved solutions of these compounds. When the compounds were difficult to be dissolved, they were dissolved in an ultrasonic cleaner with warm water at 40° C.
Under the measurement conditions for High-Performance Liquid Chromatography (HPLC) described below, the initial concentration was quantified, and then each solution was stored in an oven, which was protected from light, at 37° C., and quantified under the same measurement conditions after 1 week and 2 weeks, to determine residual rate (%) with the initial concentration (100%) being a reference.
Measurement Conditions for HPLC
High-Performance Liquid Chromatography (Shimadzu Corporation)
Data-processing software (Model: LCsolution Ver. 1.0, produced by Shimadzu Corporation)
Pump (Model: LC-20AD; produced by Shimadzu Corporation)
Column oven (Model: CTO-20A; produced by Shimadzu Corporation)
Autosampler (Model: SIL-20A; produced by Shimadzu Corporation)
PDA detector (Format: SPD-M20A)
Column: Atlantis dC18 5 μm (250×4.6 mm I.D.; produced by Waters)
Column temperature: 45° C.
Detection method: UV (254 nm)
Eluate A: pH3 buffer solution (adjusted to pH3 by adding phosphoric acid to 0.05M KH2PO4 aqueous solution)/methanol=90/10

[5] = system: superoxide produced by the neutrophils; assay: Superoxide production amount of PMA-stimulated neutrophils, CLA chemiluminescence; assay type: cell-based, human; details: 0-200 or 0-5,000 μmol/1, PMA 100 ng/ml, 30 minutes, control being 100, FIG. 2
Description: For examining the reactive oxygen-eliminating effect of the vasodilator of the present invention, the superoxide produced by the neutrophils when the neutrophils isolated from the peripheral blood of healthy individuals were stimulated with PMA (phorbor-12-myristate-13-acetate) was used. The superoxide production amount was measured by chemiluminescence using CLA (2-methyl-6-phenyl-3, 7-dihydroimidazo[1,2-α]pyrazine-3-one).
as §1, with “In addition, the neutrophil was stimulated by adding PMA so as to achieve a concentration of 100 ng/ml.” left out, “reference.” for “reference. The measurement interval was 30 seconds.”

Residual rate (%) After 1 week ([4]; Pure water) [%] | Residual rate (%) After 2 weeks ([4]; Pure water) [%] | Residual rate (%) Initial concentration ([4]; Pure water) [%] | Residual rate (%) After 1 week ([4]; pH 7.4-PBS) [%] | Residual rate (%) After 2 weeks ([4]; pH 7.4-PBS) [%] | Residual rate (%) Initial concentration ([4]; pH 7.4-PBS) [%] | SMILES | cell viability (cytotoxicity of byproducts) (rat neuroid cells B50 [1]) | superoxide-eliminating ability after storage [2] | cell viability (cytotoxicity) (rat neuroid cells B50 [3]) | relative value of the superoxide production amount [5]
99.4 | 88.5 | 100 | 98.7 | 93.6 | 100 | CCN1N=C(C)/C(=C\C=C\c2c(C)nn(CC)c2O)C1=O [BisEp-C3, 2,4-dihydro-4-[3-(1-ethyl-5-hydroxy-3-methyl-1H-pyrazol-4-yl)-2-propen-1-ylidene]-2-ethyl-5-methyl-3H-pyrazol-3-one] | not cytotoxic at any concentration | maintained the superoxide-eliminating ability equivalent to that immediately after preparation | not cytotoxic at any concentration | remarkably suppressed superoxide production amount
96.1 | 89.8 | 100 | 96.2 | 91.3 | 100 | CC1=NN(c2ccccc2)C(=O)/C1=C/C=C/c1c(C)nn(-c2ccccc2)c1O [ED2AP, 2,4-dihydro-4-[3-(5-hydroxy-3-methyl-1-phenyl-1H-pyrazol-4-yl)-2-propen-1-ylidene]-5-methyl-2-phenyl-3H-pyrazol-3-one] | not cytotoxic at any concentration | maintained the superoxide-eliminating ability equivalent to that immediately after preparation | not cytotoxic at any concentration | remarkably suppressed superoxide production amount
